Laboratory results: ChEMBL document CHEMBL3045440, “Determination of stereoselective interaction between enantiomers of chiral gamma-aryl-1H-1,2,4-triazole derivatives and Penicillium digitatum” (J Agric Food Chem, 2009)
Converted amounts (≈) assume the structure as drawn.

Experiments:
[1] = test system: Penicillium digitatum; test: Fungicidal activity against Penicillium digitatum at 50 mg/l at 26 degC after 48 hr by growth inhibition test; format: functional; conditions: read-out: GI
[2] = target: T1, Cytochrome P450 14alpha-demethylase (Penicillium digitatum, UniProt A1XG20); test: Binding affinity to Penicillium digitatum CYP51 expressed in Escherichia coli BL21 (DE3) cells assessed as absorption spectral changes with maximum at 420-430 nm and trough at 385-400 nm (type II) by binding spectrum method
T1 sequence (A1XG20 whole entry): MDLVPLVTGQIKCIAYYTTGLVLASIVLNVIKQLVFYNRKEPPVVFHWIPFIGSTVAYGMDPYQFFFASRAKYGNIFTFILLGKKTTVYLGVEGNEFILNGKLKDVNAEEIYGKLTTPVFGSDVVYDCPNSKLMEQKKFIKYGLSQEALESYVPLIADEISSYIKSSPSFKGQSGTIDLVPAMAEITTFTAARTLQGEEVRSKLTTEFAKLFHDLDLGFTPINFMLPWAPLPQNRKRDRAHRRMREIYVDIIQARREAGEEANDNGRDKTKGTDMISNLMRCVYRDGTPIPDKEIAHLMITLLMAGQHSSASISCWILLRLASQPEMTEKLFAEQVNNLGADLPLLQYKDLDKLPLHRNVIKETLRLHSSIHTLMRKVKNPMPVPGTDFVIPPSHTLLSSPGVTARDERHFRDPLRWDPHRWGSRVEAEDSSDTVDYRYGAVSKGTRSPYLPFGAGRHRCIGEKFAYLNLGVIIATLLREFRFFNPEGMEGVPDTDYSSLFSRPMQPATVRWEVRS

[3] = target: T1, Cytochrome P450 14alpha-demethylase; test: Binding affinity to Penicillium digitatum CYP51 expressed in Escherichia coli BL21 (DE3) cells by binding spectrum method
[4] = test system: Penicillium digitatum; test: Fungicidal activity against Penicillium digitatum at 26 degC after 48 hr by growth inhibition test; format: functional, organism-based
[5] = target: T1, Cytochrome P450 14alpha-demethylase; test: Binding affinity to Penicillium digitatum CYP51 expressed in Escherichia coli BL21 (DE3) cells assessed as absorption spectral changes with maximum at 390 nm and trough at 420 nm (type I) by binding spectrum method
[6] = target: T1, Cytochrome P450 14alpha-demethylase; test: Binding affinity to Penicillium digitatum CYP51 expressed in Escherichia coli BL21 (DE3) cells assessed as absorption spectral changes with maximum at 420-430 nm and trough at 390-410 nm (type II) by binding spectrum method

| Compound | inhibition of growth at 50 µg/mL [1] [%] | Activity [2] | Kd ([3]; read-out: Kd) [nM] | EC50 [4] [µg/mL] | Kd ([3]; bl21-de3) | Activity [5] | Activity [6] |
| --- | --- | --- | --- | --- | --- | --- | --- |
| CC[C@H](CCn1cncn1)c1ccccc1 | 84 | Active | 34 | 0.577 (≈ 2.68 µM) | – | – | – |
| CC[C@@H](CCn1cncn1)c1ccccc1 | 20 | Active | 1660 | 89.6 (≈ 416 µM) | – | – | – |
| CC[C@H](CCn1cncn1)c1ccc(F)cc1 | 88 | Active | 81 | – | – | – | – |
| CC[C@@H](CCn1cncn1)c1ccc(F)cc1 | 78 | Active | 230 | – | – | – | – |
| CC[C@H](CCn1cncn1)c1ccc(Cl)cc1 | 92 | Active | 150 | 0.587 (≈ 2.35 µM) | – | – | – |
| CC[C@@H](CCn1cncn1)c1ccc(Cl)cc1 | 23 | Active | 1140 | 61.1 (≈ 245 µM) | – | – | – |
| CC[C@H](CCn1cncn1)c1ccc(OC)cc1 | 89 | Active | 63 | – | – | – | – |
| CC[C@@H](CCn1cncn1)c1ccc(OC)cc1 | 77 | Active | 505 | – | – | – | – |
| CCC[C@H](CCn1cncn1)c1ccccc1 | 90 | Active | 140 | – | – | – | – |
| CCC[C@@H](CCn1cncn1)c1ccccc1 | 79 | Active | 210 | – | – | – | – |
| CCC[C@H](CCn1cncn1)c1ccc(F)cc1 | 89 | Active | 250 | – | – | – | – |
| CCC[C@@H](CCn1cncn1)c1ccc(F)cc1 | 78 | – | – | – | Not Active | – | – |
| CCC[C@H](CCn1cncn1)c1ccc(OC)cc1 | 90 | Active | 150 | 0.603 (≈ 2.33 µM) | – | – | – |
| CCC[C@@H](CCn1cncn1)c1ccc(OC)cc1 | < 5 | – | – | 138 (≈ 534 µM) | Not Active | – | – |
| CCCC[C@H](CCn1cncn1)c1ccccc1 | 73 | Active | 760 | – | – | – | – |
| CCCC[C@@H](CCn1cncn1)c1ccccc1 | 65 | – | – | – | Not Active | – | – |
| CCCC[C@H](CCn1cncn1)c1ccc(F)cc1 | 100 | Active | 90 | 0.88 (≈ 3.37 µM) | – | – | – |
| CCCC[C@@H](CCn1cncn1)c1ccc(F)cc1 | 95 | Active | 150 | 1.15 (≈ 4.4 µM) | – | – | – |
| CCCC[C@H](CCn1cncn1)c1ccc(Cl)cc1 | 88 | Active | 350 | – | – | – | – |
| CCCC[C@@H](CCn1cncn1)c1ccc(Cl)cc1 | 83 | – | 340 | – | – | Active | – |
| CCCC[C@H](CCn1cncn1)c1ccc(OC)cc1 | 100 | Active | 49 | 0.62 (≈ 2.27 µM) | – | – | – |
| CCCC[C@@H](CCn1cncn1)c1ccc(OC)cc1 | 97 | Active | 180 | 0.97 (≈ 3.55 µM) | – | – | – |
| CCCC[C@H](CCn1cncn1)c1ccc(C)cc1 | 93 | Active | 46 | – | – | – | – |
| CCCC[C@@H](CCn1cncn1)c1ccc(C)cc1 | 87 | Active | 1220 | – | – | – | – |
| CC(C)(C)C(O)/C(=C/c1ccc(Cl)cc1Cl)n1cncn1 (stereo not given) [DINICONAZOLE] | 100 | – | – | 0.09 (≈ 0.276 µM) | – | – | – |
| CC(C)(C)C(O)/C(=C\c1ccc(Cl)cc1Cl)n1cncn1 (stereo not given) [DINICONAZOLE] | – | – | 120 | – | – | – | Active |
| CC(C)(C)C(O)(CCc1ccc(Cl)cc1)Cn1cncn1 (stereo not given) [TEBUCONAZOLE] | 100 | – | 320 | 0.37 (≈ 1.2 µM) | – | Active | – |
| CC(C)(C)C(=O)C(Oc1ccc(Cl)cc1)n1cncn1 (stereo not given) [TRIADIMEFON] | 100 | – | 990 | 2.27 (≈ 7.73 µM) | – | – | Active |
| CC(C)(C)C(O)C(Oc1ccc(Cl)cc1)n1cncn1 (stereo not given) [TRIADIMENOL] | 100 | – | 640 | 1.44 (≈ 4.87 µM) | – | – | Active |
